According to patent US9730940B2, “Purine inhibitors of human phosphatidylinositol 3-kinase delta” (priority 2012, dated 2017):

target: PI3K-alpha (Homo sapiens (Human), UniProt P42336); experiment: HTRF PI3K biochemical assay, alpha isoform; settings: ratio PI3K-alpha IC50 value/PI3K-delta IC50 value
Sequence (P42336 whole entry, looked up, canonical isoform): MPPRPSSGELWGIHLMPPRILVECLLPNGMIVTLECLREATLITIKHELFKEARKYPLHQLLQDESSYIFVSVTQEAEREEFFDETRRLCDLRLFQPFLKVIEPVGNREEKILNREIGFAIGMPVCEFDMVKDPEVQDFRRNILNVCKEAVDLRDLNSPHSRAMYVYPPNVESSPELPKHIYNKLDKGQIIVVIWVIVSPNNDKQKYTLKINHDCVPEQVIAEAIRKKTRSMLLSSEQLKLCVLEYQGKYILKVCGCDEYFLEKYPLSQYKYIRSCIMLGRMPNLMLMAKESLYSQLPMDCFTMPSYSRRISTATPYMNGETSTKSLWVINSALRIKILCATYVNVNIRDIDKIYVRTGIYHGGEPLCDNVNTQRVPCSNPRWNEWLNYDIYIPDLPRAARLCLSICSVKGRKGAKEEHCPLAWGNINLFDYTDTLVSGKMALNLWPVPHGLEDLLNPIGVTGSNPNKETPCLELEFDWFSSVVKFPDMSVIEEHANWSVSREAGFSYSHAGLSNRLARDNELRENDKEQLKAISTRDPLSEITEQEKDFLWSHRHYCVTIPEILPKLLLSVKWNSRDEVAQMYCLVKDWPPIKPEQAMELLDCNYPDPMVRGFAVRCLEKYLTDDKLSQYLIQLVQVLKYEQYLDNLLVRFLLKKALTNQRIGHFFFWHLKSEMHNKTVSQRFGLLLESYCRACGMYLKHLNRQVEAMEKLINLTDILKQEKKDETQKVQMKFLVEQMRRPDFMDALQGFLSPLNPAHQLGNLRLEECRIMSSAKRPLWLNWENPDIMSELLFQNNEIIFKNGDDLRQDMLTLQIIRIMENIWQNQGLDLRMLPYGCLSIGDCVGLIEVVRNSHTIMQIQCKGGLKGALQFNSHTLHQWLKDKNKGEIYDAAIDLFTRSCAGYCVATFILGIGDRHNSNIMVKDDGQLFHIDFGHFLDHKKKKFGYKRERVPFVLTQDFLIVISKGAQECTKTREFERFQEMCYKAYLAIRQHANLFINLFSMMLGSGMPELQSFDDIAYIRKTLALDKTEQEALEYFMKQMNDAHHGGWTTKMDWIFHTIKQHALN
Sequence (P27986 whole entry partner, looked up, canonical isoform): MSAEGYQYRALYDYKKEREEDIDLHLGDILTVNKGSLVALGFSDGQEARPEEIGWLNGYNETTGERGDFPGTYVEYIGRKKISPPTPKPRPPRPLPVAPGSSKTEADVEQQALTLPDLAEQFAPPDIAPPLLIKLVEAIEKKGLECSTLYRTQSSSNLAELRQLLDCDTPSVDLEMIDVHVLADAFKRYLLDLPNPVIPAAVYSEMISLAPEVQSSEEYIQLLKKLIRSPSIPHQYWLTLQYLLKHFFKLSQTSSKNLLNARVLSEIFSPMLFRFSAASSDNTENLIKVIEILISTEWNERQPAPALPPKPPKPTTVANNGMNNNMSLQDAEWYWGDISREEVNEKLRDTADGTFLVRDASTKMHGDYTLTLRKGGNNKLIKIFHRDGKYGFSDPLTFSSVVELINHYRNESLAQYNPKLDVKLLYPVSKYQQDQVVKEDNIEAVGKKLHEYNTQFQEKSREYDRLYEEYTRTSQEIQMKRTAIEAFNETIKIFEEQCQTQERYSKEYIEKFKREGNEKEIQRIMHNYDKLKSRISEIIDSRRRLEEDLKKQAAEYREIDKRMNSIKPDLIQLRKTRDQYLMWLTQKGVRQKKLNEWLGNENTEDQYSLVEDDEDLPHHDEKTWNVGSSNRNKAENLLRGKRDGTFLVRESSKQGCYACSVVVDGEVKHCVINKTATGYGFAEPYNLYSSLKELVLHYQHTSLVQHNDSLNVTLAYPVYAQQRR

Row | Structure (SMILES) | Relative Selectivity versus PI3Kalpha
1 | CCn1c(-c2cnc(C)nc2)nc2c(O[C@H]3CCN(C(=O)C4CCOC4)C3)ncnc21 (stereo partly drawn) [Compound 2-113, 9-ethyl-8-(2-methylpyrimidin-5-yl)-6-{[(3S)-1-(tetrahydrofuran-3-ylcarbonyl)pyrrolidin-3-yl]oxy}-9H-purine] | >10
2 | CCn1c(-c2cnc(C)nc2)nc2c(O[C@H]3CCN(C(=O)CC(C)(C)N)C3)ncnc21 [Compound 2-114, 4-[(3S)-3-{[9-ethyl-8-(2-methylpyrimidin-5-yl)-9H-purin-6-yl]oxy}pyrrolidin-1-yl]-2-methyl-4-oxobutan-2-amine] | >10
3 | CCn1c(-c2cnc(C)nc2)nc2c(O[C@H]3CCN(C(=O)C=C(C)C)C3)ncnc21 [Compound 2-116, 9-ethyl-6-{[(3S)-1-(3-methylbut-2-enoyl)pyrrolidin-3-yl]oxy}-8-(2-methylpyrimidin-5-yl)-9H-purine] | >10
4 | CCn1c(-c2cnc(C)nc2)nc2c(O[C@H]3CCN(C(=O)C4[C@@H](C)[C@@H]4C)C3)ncnc21 (stereo partly drawn) [Compound 2-121, 6-({(3S)-1-[(2S,3S)-(2,3-dimethylcyclopropyl)carbonyl]pyrrolidin-3-yl}oxy)-9-ethyl-8-(2-methylpyrimidin-5-yl)-9H-purine] | >10
5 | CCn1c(-c2cnc(C)nc2)nc2c(O[C@H]3CCN(C(=O)C4C(C)C4C)C3)ncnc21 (some centres unmarked) [Compound 2-128] | >10
6 | CCn1c(-c2cnc(C)nc2)nc2c(O[C@H]3CCN(C(=O)C4CC(C)C4)C3)ncnc21 (stereo partly drawn) [Compound 2-129, 9-ethyl-6-({(3S)-1-[(3-methylcyclobutyl)carbonyl]pyrrolidin-3-yl}oxy)-8-(2-methylpyrimidin-5-yl)-9H-purine] | >10
7 | CCn1c(-c2cnc(C)nc2)nc2c(O[C@H]3CCN(C(=O)c4cocn4)C3)ncnc21 [Compound 2-136, 9-ethyl-8-(2-methylpyrimidin-5-yl)-6-{[(3S)-1-(1,3-oxazol-4-ylcarbonyl)pyrrolidin-3-yl]oxy}-9H-purine] | >10
8 | CCn1c(-c2cnc(C)nc2)nc2c(OC3(C)CCN(C(=O)C4CC4)C3)ncnc21 (centres unmarked) [Compound 2-141, 6-{[1-(cyclopropylcarbonyl)-3-methylpyrrolidin-3-yl]oxy}-9-ethyl-8-(2-methylpyrimidin-5-yl)-9H-purine] | >10
9 | CCn1c(-c2ccc(OC(F)(F)F)cc2)nc2c(O[C@H]3CCN(C(=O)C4CC4)C3)ncnc21 [Compound 2-142, 6-{[(3S)-1-(cyclopropylcarbonyl)pyrrolidin-3-yl]oxy}-9-ethyl-8-[4-(trifluoromethoxy)phenyl]-9H-purine] | >10
10 | CCn1c(-c2ccc(OC)nc2)nc2c(O[C@H]3CCN(C(=O)C4CC4)C3)ncnc21 [Compound 2-143, 6-{[(3S)-1-(cyclopropylcarbonyl)pyrrolidin-3-yl]oxy}-9-ethyl-8-(6-methoxypyridin-3-yl)-9H-purine] | >10
11 | CCn1c(-c2ccnc(OC)c2)nc2c(O[C@H]3CCN(C(=O)C4CC4)C3)ncnc21 [Compound 2-144, 6-{[(3S)-1-(cyclopropylcarbonyl)pyrrolidin-3-yl]oxy}-9-ethyl-8-(2-methoxypyridin-4-yl)-9H-purine] | >10
12 | CCn1c(-c2ccc(C(F)(F)F)nc2)nc2c(O[C@H]3CCN(C(=O)C4CC4)C3)ncnc21 [Compound 2-145, 6-{[(3S)-1-(cyclopropylcarbonyl)pyrrolidin-3-yl]oxy}-9-ethyl-8-[6-(trifluoromethyl)pyridin-3-yl]-9H-purine] | >10
13 | CCn1c(-c2ccc(C(F)(F)F)cc2)nc2c(O[C@H]3CCN(C(=O)C4CC4)C3)ncnc21 [Compound 2-146, 6-{[(3S)-1-(cyclopropylcarbonyl)pyrrolidin-3-yl]oxy}-9-ethyl-8-[4-(trifluoromethyl)phenyl]-9H-purine] | >10
14 | CCn1c(-c2ccc(OC(F)F)nc2)nc2c(O[C@H]3CCN(C(=O)C4CC4)C3)ncnc21 [Compound 2-147, 6-{[(3S)-1-(cyclopropylcarbonyl)pyrrolidin-3-yl]oxy}-8-[6-(difluoromethoxy)pyridin-3-yl]-9-ethyl-9H-purine] | >10
15 | CCC(=O)N1CC[C@H](Oc2ncnc3c2nc(-c2ccc4cn[nH]c4c2)n3C)C1 [Compound 3-1, (S)-1-(3-((8-(1H-indazol-6-yl)-9-methyl-9H-purin-6-yl)oxy)pyrrolidin-1-yl)propan-1-one] | >10
16 | CCC(=O)N1CC[C@H](Oc2ncnc3c2nc(-c2ccc(C(F)(F)F)nc2)n3C)C1 [Compound 3-2, (S)-1-(3-((9-methyl-8-(6-(trifluoromethyl)pyridin-3-yl)-9H-purin-6-yl)oxy)pyrrolidin-1-yl)propan-1-one] | >10
17 | CCC(=O)N1CC[C@H](Oc2ncnc3c2nc(-c2cnc4[nH]ccc4c2)n3C)C1 [Compound 3-3, (S)-1-(3-((9-methyl-8-(1H-pyrrolo[2,3-b]pyridin-5-yl)-9H-purin-6-yl)oxy)pyrrolidin-1-yl)propan-1-one] | >10
18 | CCC(=O)N1CC[C@H](Oc2ncnc3c2nc(-c2ccc4cc[nH]c4c2)n3C)C1 [Compound 3-4, (S)-1-(3-((8-(1H-indol-6-yl)-9-methyl-9H-purin-6-yl)oxy)pyrrolidin-1-yl)propan-1-one] | >10

Row | Structure (SMILES) | Relative Selectivity versus PI3Kalpha
19 | CCC(=O)N1CC[C@H](Oc2ncnc3c2nc(-c2ccc4[nH]ncc4c2)n3C)C1 [Compound 3-5, (S)-1-(3-((8-(1H-indazol-5-yl)-9-methyl-9H-purin-6-yl)oxy)pyrrolidin-1-yl)propan-1-one] | >10
20 | CCC(=O)N1CC[C@H](Oc2ncnc3c2nc(-c2cnc(OC)c(C(F)(F)F)c2)n3C)C1 [Compound 3-6, (S)-1-(3-((8-(6-methoxy-5-(trifluoromethyl)pyridin-3-yl)-9-methyl-9H-purin-6-yl)oxy)pyrrolidin-1-yl)propan-1-one] | >10
21 | CCC(=O)N1CC[C@H](Oc2ncnc3c2nc(-c2ccc4[nH]ccc4c2)n3C)C1 [Compound 3-7, (S)-1-(3-((8-(1H-indol-5-yl)-9-methyl-9H-purin-6-yl)oxy)pyrrolidin-1-yl)propan-1-one] | >10
22 | CCC(=O)N1CC[C@H](Oc2ncnc3c2nc(-c2ccc(C)nc2)n3C)C1 [Compound 3-8, (S)-1-(3-((9-methyl-8-(6-methylpyridin-3-yl)-9H-purin-6-yl)oxy)pyrrolidin-1-yl)propan-1-one] | >10
23 | CCC(=O)N1CC[C@H](Oc2ncnc3c2nc(-c2cc(O)cc(F)c2)n3C)C1 [Compound 3-9, 3-fluoro-5-(9-methyl-6-{[(3S)-1-propanoylpyrrolidin-3-yl]oxy}-9H-purin-8-yl)phenol] | >10
24 | CCC(=O)N1CC[C@H](Oc2ncnc3c2nc(-c2cnc4[nH]nc(C)c4c2)n3C)C1 [Compound 3-10, 9-methyl-8-(3-methyl-1H-pyrazolo[3,4-b]pyridin-5-yl)-6-{[(3S)-1-propanoylpyrrolidin-3-yl]oxy}-9H-purine] | >10
25 | CCC(=O)N1CC[C@H](Oc2ncnc3c2nc(-c2cnn(-c4ccccc4)c2)n3C)C1 [Compound 3-11, 9-methyl-8-(1-phenyl-1H-pyrazol-4-yl)-6-{[(3S)-1-propanoylpyrrolidin-3-yl]oxy}-9H-purine] | >10
26 | CCC(=O)N1CC[C@H](Oc2ncnc3c2nc(-c2cnn(-c4ccccc4)c2C)n3C)C1 [Compound 3-12, 9-methyl-8-(5-methyl-1-phenyl-1H-pyrazol-4-yl)-6-{[(3S)-1-propanoylpyrrolidin-3-yl]oxy}-9H-purine] | >10
27 | CCC(=O)N1CC[C@H](Oc2ncnc3[nH]c(-c4cnn(CC)c4C)nc23)C1 [Compound 3-13, 8-(1-ethyl-5-methyl-1H-pyrazol-4-yl)-6-{[(3S)-1-propanoylpyrrolidin-3-yl]oxy}-9H-purine] | >10
28 | CCC(=O)N1CC[C@H](Oc2ncnc3c2nc(-c2cc(F)cc(NS(C)(=O)=O)c2)n3C)C1 [Compound 3-14, N-[3-fluoro-5-(9-methyl-6-{[(3S)-1-propanoylpyrrolidin-3-yl]oxy}-9H-purin-8-yl)phenyl]methanesulfonamide] | >10
29 | CCC(=O)N1CC[C@H](Oc2ncnc3c2nc(-c2cncc(N)c2)n3C)C1 [Compound 3-15, 5-(9-methyl-5-{[(3S)-1-propanoylpyrrolidin-3-yl]oxy}-9H-purin-8-yl)pyridin-3-amine] | >10
30 | CCC(=O)N1CC[C@H](Oc2ncnc3c2nc(-c2cnn(C(C)(C)C)c2)n3C)C1 [Compound 3-16, 8-(1-tert-butyl-1H-pyrazol-4-yl)-9-methyl-6-{[(3S)-1-propanoylpyrrolidin-3-yl]oxy}-9H-purine] | >10
31 | CCC(=O)N1CC[C@H](Oc2ncnc3c2nc(-c2ccc(Cl)nc2)n3C)C1 [Compound 3-17, 8-(6-chloropyridin-3-yl)-9-methyl-6-{[(3S)-1-propanoylpyrrolidin-3-yl]oxy}-9H-purine] | >10
32 | CCCn1c(-c2cnn(CC)c2C)nc2c(O[C@H]3CCN(C(=O)CC)C3)ncnc21 [Compound 3-18, 8-(1-ethyl-5-methyl-1H-pyrazol-4-yl)-6-{[(3S)-1-propanoylpyrrolidin-3-yl]oxy}-9-propyl-9H-purine] | >10
33 | CCCn1c(-c2cnc(C)nc2)nc2c(O[C@H]3CCN(C(=O)CC)C3)ncnc21 [Compound 3-19, 8-(2-methylpyrimidin-5-yl)-6-{[(3S)-1-propanoylpyrrolidin-3-yl]oxy}-9-propyl-9H-purine] | >10
34 | CCC(=O)N1CC[C@H](Oc2ncnc3c2nc(-c2cnc(C)nc2)n3C)C1 [Compound 3-20, 9-methyl-8-(2-methylpyrimidin-5-yl)-6-{[(3S)-1-propanoylpyrrolidin-3-yl]oxy}-9H-purine] | >10
35 | CCC(=O)N1CC[C@H](Oc2ncnc3c2nc(-c2cnn(CC)c2C)n3CC(F)F)C1 [Compound 3-21, 9-(2,2-difluoroethyl)-8-(1-ethyl-5-methyl-1H-pyrazol-4-yl)-6-{[(3S)-1-propanoylpyrrolidin-3-yl]oxy}-9H-purine] | >10
